According to publication PMC9136011, “Targeting the Homologous Recombination Pathway in Cancer With a Novel Class of RAD51 Inhibitors” (Frontiers in Oncology, 2022):

Experiments:
Daudi cells = assay: Cell growth inhibition assay (CellTiter-Glo) and Bliss synergy analysis; format: cell-based; conditions: Homo sapiens, 168 h, 7 days; for IC50: estimated from four-parameter curve
Procedure: (§1) Cells were seeded in opaque-walled 96-well microplates at appropriate densities according to the growth curves (data no shown). On the following day cells were dosed with compounds. After 7 days treatments, cells viability was measured by adding 30μL CellTiter-Glo reagent (Promega) and incubated for 10 min at RT. Luminescence was measured by Envision plate reader (Perkin Elmer). For synergy analysis, the survival rates of the cells upon different treatment combinations were calculated based on the luminescence and analyzed by Combenefit software. The bliss independence model was used to analyzed the interaction between two tested articles to determine if the interaction between those two tested articles was synergistic, independent or antagonistic.

KP-4 cells = assay: as above; format: cell-based; conditions: Homo sapiens, KP-4, 168 h; 7 days, estimated from four-parameter curve
Procedure: as §1

NCI-H23 cells = assay: as above; format: cell-based; conditions: Homo sapiens, NCI-H23, 168 h; 7 days, estimated from four-parameter curve
Procedure: as §1

MIA PaCa-2 cells = assay: as above; format: cell-based; conditions: Homo sapiens, MIA PaCa-2, 168 h; 7 days, estimated from four-parameter curve
Procedure: as §1

A549 cells = assay: as above; format: cell-based; conditions: Homo sapiens, A549, 168 h; 7 days, estimated from four-parameter curve
Procedure: as §1

MDA-MB-436 cells = assay: as above; format: cell-based; conditions: Homo sapiens, MDA-MB-436, 168 h; 7 days, estimated from four-parameter curve
Procedure: as §1

[1] = system: 15 human tumor cell lines; assay: Cell growth inhibition assay, panel summary; format: cell-based; conditions: lowest to highest, upper end printed as over 25 μM, read-out: IC50 values across the 15 cell lines
Procedure: as §1

HuP-T4 cells = assay: Cell growth inhibition assay (CellTiter-Glo); format: cell-based; conditions: Homo sapiens, HuP-T4, 168 h; 7 days, estimated from four-parameter curve
Procedure: as §1

NCI-H1563 cells = assay: Cell growth inhibition assay (CellTiter-Glo); format: cell-based; conditions: Homo sapiens, NCI-H1563, 168 h; 7 days, estimated from four-parameter curve
Procedure: as §1

NCI-H526 cells = assay: Cell growth inhibition assay (CellTiter-Glo); format: cell-based; conditions: Homo sapiens, NCI-H526, 168 h; 7 days, estimated from four-parameter curve
Procedure: as §1

MDA-MB-231 cells = assay: Cell growth inhibition assay (CellTiter-Glo); format: cell-based; conditions: Homo sapiens, MDA-MB-231, 168 h; 7 days, estimated from four-parameter curve
Procedure: as §1

Raji cells = assay: Cell growth inhibition assay (CellTiter-Glo); format: cell-based; conditions: Homo sapiens, 168 h, 7 days, estimated from four-parameter curve
Procedure: as §1

MDA-MB-468 cells = assay: Cell growth inhibition assay (CellTiter-Glo); format: cell-based; conditions: Homo sapiens, MDA-MB-468, 168 h; 7 days, estimated from four-parameter curve
Procedure: as §1

HCC1937 cells = assay: Cell growth inhibition assay (CellTiter-Glo); format: cell-based; conditions: Homo sapiens, HCC1937, 168 h; 7 days, estimated from four-parameter curve
Procedure: as §1

Z-138 cells = assay: Cell growth inhibition assay (CellTiter-Glo); format: cell-based; conditions: Homo sapiens, Z-138, 168 h; 7 days, estimated from four-parameter curve
Procedure: as §1

HCC15 cells = assay: Cell growth inhibition assay (CellTiter-Glo); format: cell-based; conditions: Homo sapiens, HCC15, 168 h; 7 days, estimated from four-parameter curve
Procedure: as §1

Daudi xenograft = Daudi xenograft mouse model, tumor growth inhibition; format: in vivo; conditions: 2 mg/kg Cisplatin intraperitoneally every week
Procedure: Daudi xenograft mouse model was established by subcutaneously implantation of 10^7 cells into the female BABL/c nude mice at the age of 6-8 weeks. When tumors reached approximately 100-120 mm^3, the mice were randomly grouped into five groups (n=6) and treated with vehicle control orally every day, 30 mg/kg or 100 mg/kg Cpd-4 orally every day, 2 mg/kg Cisplatin intraperitoneally every week, or combination of 30 mg/kg Cpd-4 and 2 mg/kg Cisplatin. Cpd-4 was formulated in 30% PEG400 (Sigma) and 70% 10% vitamin E TPGS (Sigma) in water. Cisplatin was reconstituted in normal saline. Cpd-4 was administrated starting from Day 0 and Cisplatin was administrated starting from on Day1. Cisplatin was administrated 4 hours after the treatment of Cpd-4 at day 1, 8 and 15. Tumor volume was monitored twice a week.
The long diameter (a) and the short diameter (b) of the tumor were measured using caliper and the tumor volume (v was calculated using the following formula: […]
Tumor growth inhibition was calculated using the formula:
TGI(%)=(1−(Vt(treatment group)−V0(treatment group))/Vt(vehicle group)−V0(vehicle group))×100%
V0 is the tumor volume of the animal when treatment starts; vtis the tumor volume of the animal someday after treatment. The statistics of tumor volume was analyzed by two-way ANOVA followed by Tukey’s multiple comparisons test using GraphPad Prism 8.0.

normal WI-38 cells = assay: Cell growth inhibition assay, normal cells; format: cell-based; conditions: Homo sapiens, read-out: IC50, normal cell viability
Procedure: as §1

| Structure (SMILES) | IC50 (Daudi cells) [µM] | IC50 (KP-4 cells) [µM] | IC50 (NCI-H23 cells) [µM] | IC50 (MIA PaCa-2 cells) [µM] | IC50 (A549 cells) [µM] | IC50 (MDA-MB-436 cells) [µM] | IC50 [1] [µM] | IC50 (HuP-T4 cells) [µM] | IC50 (NCI-H1563 cells) [µM] | IC50 (NCI-H526 cells) [µM] | IC50 (MDA-MB-231 cells) [µM] | IC50 (Raji cells) [µM] | IC50 (MDA-MB-468 cells) [µM] | IC50 (HCC1937 cells) [µM] | IC50 (Z-138 cells) [µM] | IC50 (HCC15 cells) [µM] | TGI (Daudi xenograft) [%] | IC50 (normal WI-38 cells) [µM] | inhibition at 0.25 µM (Daudi cells; Cpd-2 250 nM) [%] |
| --- | --- | --- | --- | --- | --- | --- | --- | --- | --- | --- | --- | --- | --- | --- | --- | --- | --- | --- | --- |
| O=C(c1cc(Cc2n[nH]c(=O)c3ccccc23)ccc1F)N1CCN(C(=O)C2CC2)CC1 [Olaparib, olaparib] | 5.78 | 7.09 | 3.3 | 7.16 | 17.8 | 0.134 | 0.134 to 25 | 7.71 | > 25 | 3.91 | 4.92 | 4.87 | 5.55 | 10.7 | 1.49 | 9.17 |  |  |  |
| N.N.[Cl][Pt][Cl] [Cisplatin, cisplatin] |  |  |  |  |  |  |  |  |  |  |  |  |  |  |  |  | 20.7 |  |  |
| CC(C)OC(=O)Nc1ccc(-c2cnc(C3CCC(NC(=O)OC(C)C)CC3)s2)c(S(=O)(=O)C2CC2)c1 (stereo not shown) [Cpd-2] | 0.048 | 3.17 | 3.54 | 4.73 | 3.96 | 2.65 |  | 7.99 | 12.8 | 0.353 | 5.15 | 0.164 | 0.63 | 3.29 | 4.57 | 2.02 |  | > 10 | 41.1 |
